In US11883503B2, “Methods and compositions for cancer treatment” (DINGFU BIOTARGET CO., LTD., priority 2017, dated 2024):

System: peripheral blood lymphocytes
Assay: Flow cytometry of CD4+ and CD8+ lymphocytes in peripheral blood after FTY720
Assay type: in vivo, mice
Settings: 3 days after first administration of FTY720
Description: FTY720 (SIGMA, Cat #SML0700-5MG) was used to test activation of T cells in the tumor microenvironment. FTY720 is a lipophilic immunomodulatory sphingosine-1-phosphate analog, it induces severe peripheral blood lymphopenia and sustains lymphopenia in mice by preventing lymphocytes to egress from lymph organs through agonist-induced receptor internalization.
B16-EGFR-SIY cells were inoculated s.c. into the both flanks of mice. […] Then 3 days later, after the first administration of depletion antibodies or FTY720, lymphocytes suspensions were prepared from their peripheral blood, and labeled with APC-anti-mCD4 (clone GK1.5, BioLegend), FITC-anti-mCD8a (clone 53-6.7, BioLegend), FITC-anti-mCD3 (clone 17A2, BioLegend), or APC-anti-mNK1.1 (clone PK136, BioLegend). Tumor volumes on the both flanks were measured and monitored. Samples were analyzed on a Life Attune Flow Cytometer (Life), and data were analyzed. Representative data is shown in FIG. 6C-6F, based on results obtained from three experiments conducted with 5-6 mice per group.

CCCCCCCCc1ccc(CCC(N)(CO)CO)cc1 [FTY720]
relative number of CD4+ T cells in peripheral blood: ~1.5%
relative number of CD8+ T cells in peripheral blood: about 0.5%
